Data reported in patent US20250114345A1, “COMPOUNDS AND COMPOSITIONS AS CBP/P300 DEGRADERS AND USES THEREOF” (Oncopia Therapeutics, Inc. d/b/a/ SK Life Science Labs, priority 2023, published 2025).

Molecular target: T1, p300 (Homo sapiens, UniProt Q09472)
T1 construct: host or cells: A549 P300 HiBit cells
Test: P300 degradation, HiBit technology in A549 P300 HiBit cells (2 h)
Format: cell-based
Conditions: 2 hrs post treatment; for Dmax: A549, A549 P300 HiBit cells; for DC50: A549 P300 HiBit cells
Procedure, shortened: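 Degradation potency and Dmax came from luminescence after 10 min room-temperature lysis with HiBit detection buffer. Beforehand, HiBit-tagged A549 lines received serial compound dilutions (10 mM DMSO stocks) at 37 °C, 5% CO2. CBP cells were read at 24 h, p300 cells at 2 h.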

T1 sequence (Q09472 whole entry): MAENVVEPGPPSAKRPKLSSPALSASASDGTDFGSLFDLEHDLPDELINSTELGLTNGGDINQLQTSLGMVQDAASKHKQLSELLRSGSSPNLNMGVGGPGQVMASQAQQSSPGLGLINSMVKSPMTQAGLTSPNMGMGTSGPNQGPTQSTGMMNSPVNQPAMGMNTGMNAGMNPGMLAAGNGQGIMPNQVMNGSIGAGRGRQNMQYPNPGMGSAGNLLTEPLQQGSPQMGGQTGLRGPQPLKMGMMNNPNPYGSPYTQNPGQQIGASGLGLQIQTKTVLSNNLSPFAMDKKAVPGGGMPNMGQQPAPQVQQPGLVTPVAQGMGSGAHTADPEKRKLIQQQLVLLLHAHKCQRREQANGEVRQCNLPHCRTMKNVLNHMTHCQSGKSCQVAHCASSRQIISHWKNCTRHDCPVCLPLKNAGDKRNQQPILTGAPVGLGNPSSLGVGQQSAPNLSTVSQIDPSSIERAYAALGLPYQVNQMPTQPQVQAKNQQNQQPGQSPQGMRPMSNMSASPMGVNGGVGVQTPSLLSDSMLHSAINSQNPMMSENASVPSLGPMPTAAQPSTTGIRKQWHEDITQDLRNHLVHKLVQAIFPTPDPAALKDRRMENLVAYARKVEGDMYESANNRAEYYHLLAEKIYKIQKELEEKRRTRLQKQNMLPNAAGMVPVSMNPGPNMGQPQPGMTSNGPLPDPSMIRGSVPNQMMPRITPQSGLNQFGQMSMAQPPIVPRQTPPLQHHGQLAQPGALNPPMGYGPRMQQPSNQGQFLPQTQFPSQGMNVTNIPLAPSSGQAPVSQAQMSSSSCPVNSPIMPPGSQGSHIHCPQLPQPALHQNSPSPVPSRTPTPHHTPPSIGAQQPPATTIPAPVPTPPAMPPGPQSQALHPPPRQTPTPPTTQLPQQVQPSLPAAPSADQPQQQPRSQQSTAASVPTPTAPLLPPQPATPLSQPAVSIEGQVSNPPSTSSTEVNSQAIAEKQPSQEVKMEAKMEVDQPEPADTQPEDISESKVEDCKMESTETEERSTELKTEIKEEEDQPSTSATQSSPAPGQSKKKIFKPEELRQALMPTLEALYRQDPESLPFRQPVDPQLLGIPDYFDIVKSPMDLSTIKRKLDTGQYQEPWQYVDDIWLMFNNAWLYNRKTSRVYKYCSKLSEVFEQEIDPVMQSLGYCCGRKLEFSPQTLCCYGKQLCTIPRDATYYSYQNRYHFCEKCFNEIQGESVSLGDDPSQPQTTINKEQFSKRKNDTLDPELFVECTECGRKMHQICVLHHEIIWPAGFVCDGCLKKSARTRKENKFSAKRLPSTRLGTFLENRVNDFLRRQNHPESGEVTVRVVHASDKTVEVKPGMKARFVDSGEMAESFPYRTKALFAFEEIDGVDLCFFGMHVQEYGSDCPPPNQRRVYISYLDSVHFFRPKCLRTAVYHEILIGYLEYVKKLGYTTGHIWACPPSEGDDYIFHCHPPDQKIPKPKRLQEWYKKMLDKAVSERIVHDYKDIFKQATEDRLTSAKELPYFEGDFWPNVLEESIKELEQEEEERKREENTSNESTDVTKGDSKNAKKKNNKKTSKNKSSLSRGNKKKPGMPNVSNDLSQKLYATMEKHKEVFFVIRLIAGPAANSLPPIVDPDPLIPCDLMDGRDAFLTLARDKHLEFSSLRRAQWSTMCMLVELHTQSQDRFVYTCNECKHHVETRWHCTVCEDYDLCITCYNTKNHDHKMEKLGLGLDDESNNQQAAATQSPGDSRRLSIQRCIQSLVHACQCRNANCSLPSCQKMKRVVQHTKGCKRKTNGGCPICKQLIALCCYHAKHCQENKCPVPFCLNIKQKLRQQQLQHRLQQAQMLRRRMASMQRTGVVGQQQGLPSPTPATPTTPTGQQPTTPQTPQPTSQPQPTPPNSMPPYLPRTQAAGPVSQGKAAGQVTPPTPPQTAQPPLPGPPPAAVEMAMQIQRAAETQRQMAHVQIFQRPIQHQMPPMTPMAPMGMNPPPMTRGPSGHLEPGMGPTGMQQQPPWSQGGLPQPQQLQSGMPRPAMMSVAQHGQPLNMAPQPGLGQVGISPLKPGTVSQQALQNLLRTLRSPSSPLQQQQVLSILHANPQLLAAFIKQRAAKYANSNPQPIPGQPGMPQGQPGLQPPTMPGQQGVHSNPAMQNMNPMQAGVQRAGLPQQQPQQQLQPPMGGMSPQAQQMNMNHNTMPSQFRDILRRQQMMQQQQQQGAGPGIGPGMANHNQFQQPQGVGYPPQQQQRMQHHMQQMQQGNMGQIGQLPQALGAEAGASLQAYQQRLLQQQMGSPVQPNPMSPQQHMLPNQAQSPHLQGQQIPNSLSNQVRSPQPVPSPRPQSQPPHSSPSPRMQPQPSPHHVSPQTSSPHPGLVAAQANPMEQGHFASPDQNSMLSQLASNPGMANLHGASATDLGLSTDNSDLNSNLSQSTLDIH

| SMILES | Dmax | DC50 |
| --- | --- | --- |
| Cc1cc2c(N3CCN(C)c4cc(-c5ccc(C(=O)NCC#Cc6ccc7occ(C8CCC(=O)NC8=O)c7c6)nc5)ncc43)cc(C3CCOCC3)cc2n(C)c1=O (stereo not shown) [Example B31, 5-(4-(1,3-dimethyl-2-oxo-7-(tetrahydro-2H-pyran-4-yl)-1,2-dihydroquinolin-5-yl)-1-methyl-1,2,3,4-tetrahydropyrido[3,4-b]pyrazin-7-yl)-N-(3-(3-(2,6-dioxopiperidin-3-yl)benzofuran-5-yl)prop-2-yn-1-yl) picolinamide] | > 80% | < 1 nM |
| Cc1cc2c(N3CCN(C)c4nc(-c5ccc(C(=O)NCC#Cc6ccc7occ(C8CCC(=O)NC8=O)c7c6)nc5)ncc43)cccc2n(C)c1=O (stereo not shown) [Example B33, 5-(5-(1,3-dimethyl-2-oxo-1,2-dihydroquinolin-5-yl)-8-methyl-5,6,7,8-tetrahydropteridin-2-yl)-N-(3-(3-(2,6-dioxopiperidin-3-yl)benzofuran-5-yl)prop-2-yn-1-yl)picolinamide] | > 80% | 1 to 9.9 nM |
| Cc1cc(N2CCN(C)c3cc(-c4ccc(C(=O)NCC#Cc5cc6c(C7CCC(=O)NC7=O)cccc6o5)nc4)ncc32)c2cc(C)c(=O)n(C)c2c1 (stereo not shown) [Example B40, N-(3-(4-(2,6-dioxopiperidin-3-yl)benzofuran-2-yl)prop-2-yn-1-yl)-5-(1-methyl-4-(1,3,7-trimethyl-2-oxo-1,2-dihydroquinolin-5-yl)-1,2,3,4-tetrahydropyrido[3,4-b]pyrazin-7-yl) picolinamide] | > 80% | < 1 nM |
| Cc1cc2c(N3CCOc4cc(-c5ccc(C(=O)NCC#Cc6ccc7occ(C8CCC(=O)NC8=O)c7c6)nc5)ccc43)cc(C3CCOCC3)cc2n(C)c1=O (stereo not shown) [Example B41, 5-(4-(1,3-dimethyl-2-oxo-7-(tetrahydro-2H-pyran-4-yl)-1,2-dihydroquinolin-5-yl)-3,4-dihydro-2H-benzo[b][1,4]oxazin-7-yl)-N-(3-(3-(2,6-dioxopiperidin-3-yl)benzofuran-5-yl)prop-2-yn-1-yl)picolinamide] | > 80% | 1 to 9.9 nM |
| Cc1cc2c(N3CCCc4nc(-c5ccc6c(c5)C(=O)N(CC#Cc5ccc7occ(C8CCC(=O)NC8=O)c7c5)C6)ncc43)cc(C3CCOCC3)cc2n(C)c1=O (stereo not shown) [Example B44, 3-(5-(3-(6-(5-(1,3-dimethyl-2-oxo-7-(tetrahydro-2H-pyran-4-yl)-1,2-dihydroquinolin-5-yl)-5,6,7,8-tetrahydropyrido[3,2-d]pyrimidin-2-yl)-1-oxoisoindolin-2-yl)prop-1-yn-1-yl)benzofuran-3-yl)piperidine-2,6-dione] | 20 to 39% | 1 to 9.9 nM |

Now from value to compound:

| Dmax | DC50 | SMILES |
| --- | --- | --- |
| > 80% | < 1 nM | Cc1cc2c(N3CCCc4cc(-c5ccc(C(=O)NCC#Cc6cc7c(C8CCC(=O)NC8=O)cccc7o6)nc5)nnc43)cccc2n(C)c1=O (stereo not shown) [Example B34, 5-(8-(1,3-dimethyl-2-oxo-1,2-dihydroquinolin-5-yl)-5,6,7,8-tetrahydropyrido[2,3-c]pyridazin-3-yl)-N-(3-(4-(2,6-dioxopiperidin-3-yl)benzofuran-2-yl)prop-2-yn-1-yl)picolinamide] |
| > 80% | 1 to 9.9 nM | Cc1cc2c(N3CCCc4nc(-c5cnc(C(=O)NCC#Cc6cc7c(C8CCC(=O)NC8=O)cccc7o6)c(Cl)c5)ncc43)cccc2n(C)c1=O (stereo not shown) [Example B36, 3-chloro-5-(5-(1,3-dimethyl-2-oxo-1,2-dihydroquinolin-5-yl)-5,6,7,8-tetrahydropyrido [3,2-d]pyrimidin-2-yl)-N-(3-(4-(2,6-dioxo-piperidin-3-yl)benzofuran-2-yl)prop-2-yn-1-yl)picolinamide] |
| > 80% | 1 to 9.9 nM | CCc1cc(N2CCCc3nc(-c4ccc(C(=O)NCC#Cc5ccc6occ(C7CCC(=O)NC7=O)c6c5)nc4)ncc32)c2cc(C)c(=O)n(C)c2c1 (stereo not shown) [Example B43, N-(3-(3-(2,6-dioxopiperidin-3-yl)benzofuran-5-yl)prop-2-yn-1-yl)-5-(5-(7-ethyl-1,3-dimethyl-2-oxo-1,2-dihydroquinolin-5-yl)-5,6,7,8-tetrahydropyrido[3,2-d]pyrimidin-2-yl) picolinamide] |
